We go through 5 molecules from patent US9198894B2, “Uses of 15-benzylidene-14-deoxy-11,12-didehydroandrographolide derivatives in the preparation of antineoplastic drugs” (Zhengzhou University, priority 2010, dated 2015).

pIC50: −log10 of the molar value. Read-outs that look alike come from different tables or passages of the source. Marks after values point to notes of the source that are not given here.

Test [1] deals with A549 human lung adenocarcinoma. Briefly: Colony formation assay, A549. Conditions: for pIC50: read-out: Inhibition against tumor cell colony formation IC50. Format: cell-based. As for the experimental part: (§1) 1) Cell lines: Cell lines of SGC-7901 human gastric cancer, A549 human lung adenocarcinoma and Hela human cervical carcinoma were purchased from the Type Culture Collection of the Chinese Academy of Sciences, Shanghai, China.
(§2) 3) Method: Colony formation assay was used. The cells were trypsinized to generate a single-cell suspension and seeded in a 6-well plate at a density of 100 cells/well, then drug-containing medium was added to the well to make the final concentration of compound to 0, 1.25, 2.50, 5.00, 7.50, 10.00 μmol/L, respectively. The experiments were performed in duplicate, and the cells were cultured at 37 in a humidified atmosphere with 5% CO2. Terminate cell culture when the clones can be seen in the culture plate, then remove the culture medium, and wash twice with PBS, fix the cells with methanol (5 ml/well) for 15 min and stain the cells with hematoxylin-eosin stain. The number of clones which comprised more than 50 cells was counted under a TS100-F-PH microscope (Nikon Company, Japan). Calculate relative colony formation ratio (%) and the IC50 values. Relative colony formation ratio (%)=(colony number of drug-administration well/colony number of control well)×100%.

For test [2], the system named is SGC-7901 human gastric cancer. Briefly: Colony formation assay, SGC-7901. The test is classed as cell-based. Conditions: for pIC50: read-out: Inhibition against tumor cell colony formation IC50. As for the experimental part:
as §1, §2

Test [3] deals with Hela human cervical carcinoma. Briefly: Colony formation assay, Hela. Format: cell-based. Conditions: for pIC50: read-out: Inhibition against tumor cell colony formation IC50. On the procedure: as §1, §2
In test [4] the test system is 5637 human urinary bladder cancer cells. The test can be described thus: Wound healing (two-dimensional migration) assay, 5637. Format: cell-based. The following applies: 5637, 10.00 μmol/l, 24 h (FIG. 1C). As for the experimental part:
(§3) 1) Cell lines: Cell lines of 5637 human bladder carcinoma, Eca-109 human esophageal carcinoma, HT29 human colon cancer, SGC-7901 human gastric cancer, A549 human lung adenocarcinoma and PC-3 human prostate carcinoma were purchased from the Type Culture Collection of the Chinese Academy of Sciences, Shanghai, China.
(§4) 3) Methods: The cells were trypsinized to generate a single-cell suspension and seeded in 96-well plates (200 μl/well), and incubated with medium containing 10% fetal bovine serum at 37 in a humidified atmosphere with 5% CO2. Following a 24 h incubation, the cells were starved for an additional 12 h in low-serum media (1% FBS). The cultures of Eca-109, HT29, 5637, SGC-7901, A549 and PC-3 were then scratched away with a 200-μl plastic pipette tip and rinsed twice with PBS to remove wound-derived loose and dislodged cells. The cells were cultured in replaced medium without or with compounds at final concentrations of 0, 2.50, 5.00 and 10.00 μmol/L, respectively. At least seven randomly selected views along the scraped line in each well were photographed immediately and 24 h and 36 h after incubation using a digital camera at 50× magnification. The average scraped area in each well under each treatment condition was measured, and the percentage of inhibition against cell migration was calculated. % of inhibition=1−(A0−At)/(A′0−A′t)×100%, where, A0 and At are the areas of wound with compound treatment measured immediately and 24 or 36 h post-injury, respectively; A′0 and A′t are the areas of wound without compound treatment measured immediately and 24 or 36 h post-injury, respectively.

For test [5], the system named is A549 human lung carcinoma cells. Briefly: Wound healing (two-dimensional migration) assay, A549. The test is classed as cell-based. The following applies: A549, 10.00 μmol/l, 36 h (FIG. 1E). On the procedure: as §3, §4
Test [6] has as its system Eca-109 human esophageal carcinoma cells. The test can be described thus: Wound healing (two-dimensional migration) assay, Eca-109. The following applies: Eca-109, 10.00 μmol/l, 24 h (FIG. 1A). The test is classed as cell-based. On the procedure: as §3, §4
Another test concerns S180 murine sarcoma. Briefly: Growth, invasion and metastasis of S180 sarcoma in tumor-bearing mice. Format: in vivo, mouse. On the procedure:
1) Animals: Be the same with that of EXAMPLE 4.
2) Cells: The S180 murine sarcoma cells were obtained from Henan Academy of Medical and Pharmaceutical Sciences (Zhengzhou, China).
4) Method: Mice were randomly divided into 10 groups (n=12). The S180 cells after in vivo passage for 7 d were diluted with physiological saline to adjust to a concentration of 1×10^7/mL. The inoculation of tumor cells was conducted in two batches, those of tumor control group I and groups treated with compounds 1 or 3 were in batch 1, those of tumor control group II, Cyc group and the compound 2 groups were in batch 2. The mice were injected with S180 cells (0.2 ml/mouse) into the armpit of right forelimb subcutaneously, and 24 h later each group of mice was administrated intragastrically (ig; 0.2 ml/10 g) once a day continuously for 9 d with vehicle (tumor control group), Cyc (standard control), or compounds at the tested doses. On day 10, kill the mice, observe and record the degree of invasion and metastasis of tumor tissues, then the tumor tissues were segregated and weighed. The inhibition ratio (IR) of tumor growth was calculated by the following formula: IR (%)=[(Wc−Wt)/Wc]×100%, where Wc is the average tumor weight of the control group, and Wt is that of the treatment group. Data were expressed as mean±SD and statistical analysis was performed by SPSS Statistics 17.0 using a one-way analysis of variance (ANOVA) followed by unpaired t-test. A value of P<0.05 was considered statistically significant.

For a further test, the system named is Murine hepatoma H22. Briefly: Anti-tumor and anti-angiogenesis effects on H22 tumor-bearing mice. Conditions: H22 mice, 1.35 mmol/kg ig once a day 7 d. Format: in vivo, mouse. From the text: 1) Animals: Kunming mice of clean grade, half male and half female, body weight 20±2 g, were purchased from the experimental animal center of Henan Province, China. Qualified Certificate number: SCXK (Yu) 2005-0001.
2) Cells: Murine hepatoma H22 cells were presently obtained from Henan Academy of Medical and Pharmaceutical Sciences (Zhengzhou, China).
Cyclophosphamide (Cyc) was produced by Tianjin Jingshi Pharmaceutical Co., Ltd., China (approval number of medicine: H12021006). Gelatin and carmine red were supplied by Sigma Chemical (St. Louis, Mo., U.S.A). All other chemicals and reagents were of the highest commercial grade available. All drugs were prepared with normal saline emulsified with Tween-80 (0.1% v/v) and dispersed in carboxymethylcellulose (0.5% v/v). 10% (W/V) carmine solution was prepared with salt solution containing 5% (W/V) gelatin which should be used immediately after preparation. The rest of medicines and reagents and the methods for preparation were the same with that of EXAMPLE 1.
4) Method: The H22 cells after in vivo passage for 7 d were diluted with physiological saline to adjust to a concentration of 1×10^7/mL, injected to the armpit of right forelimb of mice subcutaneously (0.2 ml/mouse), then mice were divided into 10 groups (n=12; 6 male and 6 female per group) randomly. 24 h later each group of mice was administrated intragastrically (ig; 0.2 ml/10 g) once a day continuously for 7 d with vehicle (tumor control group and control group), Cyc (standard control), or compounds at the tested doses. After the last drug administration and a following fasting of 8 h, each mouse was anesthetized with 1% pentobarbital in normal saline solution (80 mg/kg; ip). Mice of control group were injected with 5% gelatin in normal saline solution (40) via the tail vein (1 ml/mouse); whereas mice of other groups were injected replaced by 10% carmine red and 5% gelatin in normal saline solution (40). Mice were killed, then freezed in a refrigerator at −20 for 2 h to solidify. Tumors were segregated, weighed and homogenized with 3 M NaOH solution (10 ml/g tumor). The homogenate supernatant was prepared by being centrifuged for 20 min at 14000 rpm, and the absorbance at 490 nm was assayed using a PowerWaveX Microplate Scanning Spectrophotometer (Bio-tek Instruments, Inc). The carmine red content was calculated based on the standard curve. The vascular index (VI) expressed as milligram of carmine red per gram of tumor tissue. The inhibition ratio (IR) of tumor growth was calculated using the formula: IR (%)=[(Wc−Wt)/Wc]×100%, where Wc is the average tumor weight of the control group, and Wt is that of the drug treatment group. Data were expressed as mean±SD and statistical analysis was performed by SPSS Statistics 17.0 using a one-way analysis of variance (ANOVA) followed by unpaired t-test. A value of P<0.05 was considered statistically significant.

By pIC50 is commonly meant the IC50 on a negative log10 scale, so that one unit is a factor of ten. With `C=C1CCC2C(C)(CO)C(O)CCC2(C)C1C=CC1=CC(=Cc2ccc(Br)cc2)OC1=O` (stereo not drawn) [Compound 6], the “Inhibition of colony formation compared with andrographolide” value (shortened to “Inhibition … compared with andrographolide”) in test [1], in test [2] and in test [3] (Hela) was “remarkably stronger than that of andrographolide” in each case. The pIC50 in test [1] was 5.78; in test [2], 5.58; in test [3] (Hela), 5.70.
For `C=C1CCC2C(C)(CO)C(O)CCC2(C)C1C=CC1=CC(=Cc2ccc(OC)cc2)OC1=O` (stereo not drawn) [Compound 7], the “Inhibitory effect on two-dimensional migration” value (“Inhibitory effect” below) in test [4] and in test [5] was “stronger inhibition” each time. Also, the “Inhibition … compared with andrographolide” value in test [1], in test [2] and in test [3] (Hela) was “remarkably stronger than that of andrographolide” each time. Further, the pIC50 in test [1] was 5.48; in test [2], 5.61; in test [3] (Hela), 5.62.
As to `C=C1CCC2C(C)(COC(=O)CCC(=O)O)C(OC(=O)CCC(=O)O)CCC2(C)C1C=CC1=CC(=Cc2ccc(Cl)cc2)OC1=O` (stereo not drawn) [Compound 8], the “Inhibitory effect” value in test [6] and in test [5] was “much stronger than that of other tumor cells” in each case.
For the molecule `C=C1CC[C@@H]2[C@](C)(CO)[C@H](O)CC[C@@]2(C)[C@@H]1C/C=C1/C(=O)OC[C@H]1O` [Compound 1, Andrographolide], the “Inhibitory effect” value in test [4] and in test [5] was “stronger inhibition” throughout. In addition, the pIC50 in test [1] (Homo sapiens) was 4.95; in test [2] (Homo sapiens) it was 4.72; in test [3] (Homo sapiens, HeLa), 5.54. Also, the “IR (%) of S180 sarcoma growth” value in the test on S180 murine sarcoma (1.35 mmol/kg ig once a day 9 d) is 17.18 ± 3.21 %. Moreover, the “Average invasion and metastasis grade” value in the test with S180 murine sarcoma (S180, grades 0-4, 1.35 mmol/kg) is listed as 0.67. Besides, the “Mouse Number Grade 0” value in the test with S180 murine sarcoma (S180 invasion, Grade 0: no invasion, 1.35 mmol/kg) is given as 6. Besides, the “Mouse Number Grade 1” value in the test on S180 murine sarcoma (S180 invasion, Grade 1: invasion to right forelimb, 1.35 mmol/kg) amounted to 4. For the same molecule, the “Mouse Number Grade 2” value with S180 murine sarcoma (S180 invasion, Grade 2: right forelimb and the left side of body, 1.35 mmol/kg) is given as 2. In the test on S180 murine sarcoma (S180 invasion, Grade 3: also the ribs and muscles in chest, 1.35 mmol/kg), the “Mouse Number Grade 3” value came out at 0. In addition, the “Mouse Number Grade 4” value with S180 murine sarcoma (S180 invasion, Grade 4: invasion into chest or abdominal cavity, 1.35 mmol/kg) stood at 0. Further, the “IR (%) of tumor growth” value in the test with Murine hepatoma H22 was 31.70* %. This molecule had a Carmine contents in the test with Murine hepatoma H22 (mean ± s) of 4.66 ± 2.58. The “VI (vascular index, mg carmine red per g tumor tissue)” value in the test on Murine hepatoma H22 (mean ± s) was 5.10 ± 2.13 mg/g.
Take `C=C1CCC2C(C)(CO)C(O)CCC2(C)C1C=CC1=CC(=Cc2ccc(F)cc2)OC1=O` (stereo not drawn) [Compound 5]: the “Inhibition … compared with andrographolide” value in test [1], in test [2] and in test [3] (Hela) was “remarkably stronger than that of andrographolide” throughout. Also, the pIC50 in test [1] was 5.64; in test [2], 5.68; in test [3] (Hela), 5.83. Further, the “Inhibitory effect” value in test [6] and in test [5] was “much stronger than that of other tumor cells” in each case.
